Legend:
Experiment in all cases: two-electrode voltage clamp, Xenopus oocytes
[1] = molecular target: T1, GluN1/GluN2A NMDA receptor (GluN1 ligand-binding site) (Rattus norvegicus, UniProt P35439); assay type: cell-based
T1 construct: gene Grin1; pcDNA3.1 inserts; mRNA-injected Xenopus laevis oocytes; hetero-tetramer

[2] = molecular target: T2, GluN1/GluN2A NMDA receptor (GluN1 ligand-binding site) (Rattus norvegicus, UniProt P35439, D732L); assay type: cell-based
T2 construct: gene Grin1; pcDNA3.1 inserts; mRNA-injected Xenopus laevis oocytes; hetero-tetramer

AKDF^19383 [3] = test system: T3, AKDF^19383; assay type: cell-based, Trichoplax adhaerens; settings: inhibition of constitutive current; pH 7.5; -80 mV
T3 construct: gene TRIADDRAFT_19383; codon-optimized, modified pSP64-poly(A); Xenopus laevis oocytes; homo-tetramer

AKDF^19383 [4] = test system: T3, AKDF^19383; assay type: cell-based, Trichoplax adhaerens; settings: pH 7.5; -80 mV; agonist
[5] = molecular target: T4, GluN1/GluN2A NMDA receptor (channel pore) (Rattus norvegicus, UniProt P35439+Q00959); assay type: cell-based; settings: glycine and glutamate present; pH 7.3; -60 mV; open-channel block kinetics
T4 construct: gene Grin1; pcDNA3.1 inserts; mRNA-injected Xenopus laevis oocytes; hetero-tetramer

## O=C(O)c1cc(O)c2c(Cl)cc(Cl)cc2n1 [5,7-dichlorokynurenic acid]
[1]
  IC50: 24.9 ± 5.2 µM
[2]
  IC50: 0.44 ± 0.12 µM

## N[C@H](CO)C(=O)O [D-serine]
AKDF^19383 [3]
  % inhibition at 10 mM: ~ 50%
AKDF^19383 [4]
  EC50: 490 ± 120 µM

## C[C@]12N[C@H](Cc3ccccc31)c1ccccc12 [MK-801]
[5]
  two-electrode voltage clamp, Xenopus oocytes: very similar kinetics of inhibition of WT and mutant receptors (Fig. 3A)

## C[C@H](N)C(=O)O [alanine]
AKDF^19383 [3]
  % inhibition at 10 mM: ~ 50%

## NCC(=O)O [glycine]
AKDF^19383 [3]
  % inhibition at 10 mM: ~ 50%

Reference: paper doi:10.1101/2023.08.03.551817v2 (biorxiv, 2024)
